In PubChem BioAssay (NCI):
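Briefly, cells in 96-well plates were exposed to five compound concentrations for 48 h, and endpoints were estimated by linear interpolation. The concentration for 50% growth inhibition is given as GI50. TGI marks complete inhibition of growth.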

What was measured:
Assay in all cases: DTP human tumour cell line panel, 48 h
SK-MEL-2 melanoma = system: SK-MEL-2 melanoma
NCI-H460 lung = system: NCI-H460 lung
DLD-1 colon = system: DLD-1 colon
DMS 114 small cell lung = system: DMS 114 small cell lung
MALME-3M melanoma = system: MALME-3M melanoma
HT29 colon = system: HT29 colon
U251 CNS = system: U251 CNS
A549 NSCLC = system: A549 NSCLC
HS 578T breast = system: HS 578T breast
MDA-MB-435 = system: MDA-MB-435

Structure (SMILES) | TGI (SK-MEL-2 melanoma) [µM] | TGI (NCI-H460 lung) [µM] | TGI (DLD-1 colon) [µM] | TGI (DMS 114 small cell lung) [µM] | TGI (MALME-3M melanoma) [µM] | TGI (HT29 colon) [µM] | TGI (U251 CNS) [µM] | TGI (A549 NSCLC) [µM] | GI50 (SK-MEL-2 melanoma) [µM] | GI50 (HS 578T breast) [µM] | TGI (HS 578T breast) [µM] | GI50 (NCI-H460 lung) [µM] | GI50 (MDA-MB-435) [µM] | TGI (MDA-MB-435) [µM] | GI50 (MALME-3M melanoma) [µM] | GI50 (HT29 colon) [µM] | GI50 (U251 CNS) [µM] | GI50 (A549 NSCLC) [µM]
CN(C)c1ccc(/C=C/C(=O)c2ccccc2)cc1Br | 44.5 | > 100 | 35.6 | 36.9 | 43 | 51 | 33.6 | > 100 | – | – | – | – | – | – | – | – | – | –
COc1ccc2c(c1)CCc1cnn(C3OC(COC(C)=O)C(OC(C)=O)C(OC(C)=O)C3OC(C)=O)c1-2 (configuration not stated) | > 100 | > 100 | > 100 | > 100 | – | > 100 | 65.6 | > 100 | – | – | – | – | – | – | – | – | – | –
COC(=O)CCC(=O)CC(=O)C(=O)Nc1ccc(F)cc1 | > 100 | > 100 | > 100 | > 100 | > 100 | > 100 | > 100 | > 100 | – | – | – | – | – | – | – | – | – | –
COC(=O)CSc1ccccc1 | 46.4 | > 100 | > 100 | – | 59.8 | > 100 | > 100 | > 100 | – | – | – | – | – | – | – | – | – | –
CNc1nnnn1C1OC(CO)C(O)C1O (configuration not stated) | > 100 | > 100 | > 100 | > 100 | > 100 | > 100 | > 100 | > 100 | – | – | – | – | – | – | – | – | – | –
C[C@]12CCC3[C@@H](C[C@H]4OC(=O)[C@@]35CCC(=O)C=C45)C1CCC2=O (some centres not stated) | > 100 | > 100 | > 100 | > 100 | > 100 | > 100 | > 100 | > 100 | – | – | – | – | – | – | – | – | – | –
Cc1cc2c(cc1C)N1Cc3c(ccc(C)c3C)N(C2)C1 (tested in a mixture with another compound) | – | > 100 | > 100 | > 100 | – | > 100 | > 100 | > 100 | – | – | – | – | – | – | – | – | – | –
O=C1C(c2ccc([N+](=O)[O-])cc2)=[N+]([O-])c2ccccc21 | > 100 | > 100 | > 100 | 27.1 | > 100 | > 100 | 36.3 | > 100 | – | – | – | – | – | – | – | – | – | –
Cc1cc2cc(Cl)ccc2nc1C(=O)c1ccccc1 | > 100 | – | > 100 | > 100 | > 100 | – | > 100 | > 100 | – | – | – | – | – | – | – | – | – | –
COc1cc(C2c3cc4c(cc3[C@H](NC(=O)c3cccs3)C3COC(=O)[C@H]23)OCO4)cc(OC)c1OC (some centres not stated) | > 100 | 10.8 | 36.8 | – | > 100 | 11.2 | 0.865 | 37.1 | – | – | – | – | – | – | – | – | – | –
O=C(Nc1ccc(Cl)c(Cl)c1)C(=O)Nn1c(=S)[nH]c2ccccc2c1=O | > 100 | > 100 | > 100 | > 100 | > 100 | > 100 | > 100 | > 100 | – | – | – | – | – | – | – | – | – | –
O=c1oc2c3ccc4ccccc4c3n(CCN3CCOCC3)c2c2ccccc12 | – | > 100 | > 100 | > 100 | > 100 | > 100 | – | > 100 | – | – | – | – | – | – | – | – | – | –
O=C(CSc1nc2ccc([N+](=O)[O-])cc2[nH]1)Nc1cccc(Cl)c1 | 5.82 | 13.1 | – | – | 8.17 | 10.7 | 13.1 | 15.9 | 2 | 2.95 | 19.4 | 3.22 | 2.7 | 12.2 | 1.87 | 2.75 | 2.6 | 2.72
COc1ccc(-c2cn(-c3ccc(Cl)cc3)c(=S)[nH]2)cc1OC | > 100 | > 100 | – | – | > 100 | > 100 | > 100 | > 100 | > 100 | 19.2 | > 100 | 3.92 | > 100 | > 100 | 68.4 | 3.89 | 12.3 | 66.4
COc1ccc(CN2C(=O)C(Cc3cc(OC)c(OC)c(C)c3OC)N(C(=O)OC(C)C)C(=O)/C2=C/c2cc(OC)c(OC)c(C)c2OC)cc1 (configuration not stated) | > 100 | > 100 | > 100 | > 100 | > 100 | > 100 | > 100 | > 100 | – | – | – | – | – | – | – | – | – | –
O=C(/C=C/C=C/c1ccccc1)c1ccc(Nc2nc(Nc3ccccc3)nc(Nc3ccccc3)n2)cc1 | > 100 | > 100 | – | – | > 100 | > 100 | > 100 | > 100 | > 100 | 29 | > 100 | 42.8 | > 100 | > 100 | > 100 | > 100 | 63.7 | 89.1
CCOC(=O)C1=C(N)Oc2c(sc3c(C)cccc23)C1c1ccc(Cl)cc1 (configuration not stated) | 22.4 | 11.6 | – | – | 19.6 | 11.8 | 14.8 | 18.8 | 5.83 | 1.78 | 6.95 | 3.29 | 0.447 | 2.59 | 5.19 | 3.16 | 3.46 | 3.9
CC(=O)Oc1ccc2ccc(=O)oc2c1OC(C)=O | > 100 | > 100 | – | – | > 100 | > 100 | > 100 | > 100 | – | – | > 100 | – | – | > 100 | – | – | – | –
CN(C)c1ccccc1CC(c1c[nH]c2ccccc12)c1c[nH]c2ccccc12 | 29.3 | 16 | 30.4 | 20.4 | 31.4 | 17.8 | 24.7 | 22.2 | – | – | – | – | – | – | – | – | – | –
CN(CCCCCl)P(=O)(OCc1ccc([N+](=O)[O-])o1)C(F)(F)c1ccc(CC(=O)N[C@@H](CC(=O)O)C(=O)N[C@@H](Cc2ccc(C(F)(F)P(=O)(OCc3ccc([N+](=O)[O-])o3)N(C)CCCCCl)cc2)C(N)=O)cc1 (some centres not stated) | 57.4 | > 100 | – | – | > 100 | > 100 | > 100 | > 100 | 21.6 | 37.6 | > 100 | > 100 | 49.1 | > 100 | > 100 | 60.4 | 50.8 | > 100
COc1ccc(NC(=O)CC/C(CC(=O)c2ccccc2Cl)=N\Nc2nnc(C)n2N)cc1 | > 100 | > 100 | > 100 | > 100 | > 100 | > 100 | > 100 | > 100 | – | – | – | – | – | – | – | – | – | –
COCC1C(=O)c2cc3c(cc2C12C=CC1(C=C2)OCCO1)OCO3 (configuration not stated) | 24.5 | 31.9 | 6.5 | 11.6 | 27.4 | 15 | 14 | 28.9 | – | – | – | – | – | – | – | – | – | –
